MIC data for nine compounds are collected here from DBAASP.

Values after ≈ are worked out from the molar mass of the structure shown. Values joined by “and” are separate entries in the source; they are usually repeats but may differ in a detail not shown here. Identical values can stand only once. Some results are limits rather than exact numbers.

Among the test systems are Candida parapsilosis; Bacillus subtilis DELTA; Bacillus cereus AS1.126; Escherichia coli AS1.349; Escherichia coli HB101; Escherichia coli DL7.
Common to all, as to assay: ≥ marks a high value that may be exact or a test limit, other limits are often not marked, values filed in µg/mL are converted to µM
Assay [1] has as its system Pseudomonas aeruginosa PAO1.
Assay [2] deals with Zymomonas mobilis ATCC 10988.
In assay [3] the test system is Escherichia coli DH5alpha.
In assay [4] the test system is Staphylococcus aureus ATCC 33591.
Assay [5] concerns Staphylococcus aureus ATCC 700699.
Assay [6] has as its system Escherichia coli ATCC 25922.
Assay [7] concerns Klebsiella pneumoniae ATCC 700603.
The subject of assay [8] is Staphylococcus aureus ATCC 29213.
The subject of assay [9] is Pseudomonas aeruginosa ATCC 27853.
The subject of assay [10] is Pseudomonas aeruginosa CGMCC 1.860.
Assay [11] concerns Proteus mirabilis CICC 22931.
In assay [12] the test system is Staphylococcus epidermidis CICC 23664.
Assay [13] has as its system Klebsiella pneumoniae subsp. pneumoniae CGMCC 1.176.
For assay [14], the system named is Enterococcus faecium CGMCC 1.2334.
Assay [15] concerns Staphylococcus aureus AS1.72.
Assay [16] has as its system Enterobacter cloacae CGMCC 1.58.
Assay [17] concerns Enterococcus faecalis CGMCC 1.595.
In assay [18] the test system is Micrococcus luteus ATCC 10240.
The subject of assay [19] is Escherichia coli KCTC 2223.
For assay [20], the system named is Staphylococcus aureus ATCC 15752.
Assay [21] concerns Corynebacterium glutamicum ATCC 13032.
In assay [22] the test system is Staphylococcus aureus ATCC 9144.
For assay [23], the system named is Klebsiella aerogenes ATCC 13048.
Assay [24] deals with Staphylococcus epidermidis ATCC 12228.
The test system of assay [25] is Listeria monocytogenes LO28.
In assay [26] the test system is Cronobacter sakazakii DPC 6440.

As to `CC[C@H](C)[C@H](NC(=O)[C@H](CCCCN)NC(=O)[C@H](CCCCN)NC(=O)[C@H](CC(C)C)NC(=O)CN)C(=O)N[C@H](C(=O)N[C@@H](CCCCN)C(=O)N[C@@H](CCCCN)C(=O)N[C@@H](CC(C)C)C(=O)N[C@@H](CC(C)C)C(N)=O)[C@@H](C)CC` [GLKKIIKKLL], the MIC in assay [1] is 13 µM (≈ 15 µg/mL); against Candida parapsilosis, 17.3 µM (≈ 20 µg/mL); in the assay with Bacillus subtilis DELTA, 13 µM (≈ 15 µg/mL); in assay [2], 17.3 µM (≈ 20 µg/mL); in assay [3] it was at least 173 µM.
Consider `CC[C@H](C)[C@H](NC(=O)[C@H](CC(=O)O)NC(=O)[C@H](CCCCN)NC(=O)[C@H](C)NC(=O)[C@H](C)NC(=O)CNC(=O)[C@H](C)NC(=O)[C@H](CC(C)C)NC(=O)[C@@H](NC(=O)[C@H](CC(=O)O)NC(=O)[C@@H](NC(=O)[C@@H](NC(=O)CN)C(C)C)C(C)C)[C@@H](C)CC)C(=O)N[C@@H](C)C(=O)NCC(=O)N[C@@H](Cc1cnc[nH]1)C(=O)N[C@@H](CC(C)C)C(=O)N[C@@H](C)C(=O)N[C@@H](CO)C(=O)N[C@@H](CCCCN)C(=O)N[C@H](C(=O)N[C@@H](CCSC)C(=O)N[C@@H](CC(N)=O)C(=O)N[C@@H](CCCCN)C(=O)N[C@@H](CC(C)C)C(N)=O)C(C)C` [GVVDILAGAAKDIAGHLASKVMNKL], for which the MIC is at least 100 µM in [4]; at least 100 µM in assay [5]; over 100 µM in assay [6]; over 100 µM in [7]; over 100 µM in [8]; over 100 µM in assay [9].
Consider `CC[C@H](C)[C@H](NC(=O)[C@H](CC(=O)O)NC(=O)[C@H](CCCCN)NC(=O)[C@H](C)NC(=O)[C@H](C)NC(=O)CNC(=O)[C@H](CCCCN)NC(=O)[C@H](CC(C)C)NC(=O)[C@@H](NC(=O)[C@H](CC(=O)O)NC(=O)[C@@H](NC(=O)[C@@H](NC(=O)CN)C(C)C)C(C)C)[C@@H](C)CC)C(=O)N[C@@H](C)C(=O)NCC(=O)N[C@@H](Cc1cnc[nH]1)C(=O)N[C@@H](CC(C)C)C(=O)N[C@@H](C)C(=O)N[C@@H](CO)C(=O)N[C@@H](C)C(=O)N[C@H](C(=O)N[C@@H](CCSC)C(=O)N[C@@H](CC(N)=O)C(=O)N[C@@H](CCCCN)C(=O)N[C@@H](CC(C)C)C(N)=O)C(C)C` [GVVDILKGAAKDIAGHLASAVMNKL], for which the MIC in [4] is at least 100 µM; in assay [5], at least 100 µM; in assay [6], 100 µM (≈ 249 µg/mL); in assay [7], over 100 µM; in [8], over 100 µM; in assay [9], over 100 µM.
Turning to `CC[C@H](C)[C@H](N)C(=O)N[C@@H](CCCCN)C(=O)N[C@@H](CCCCN)C(=O)N[C@H](C(=O)N[C@@H](Cc1c[nH]c2ccccc12)C(=O)N[C@@H](CO)C(=O)N[C@@H](CCCCN)C(=O)N[C@H](C(=O)N[C@@H](CCCCN)C(=O)N[C@@H](CCCCN)C(=O)N[C@@H](Cc1c[nH]c2ccccc12)C(=O)N[C@@H](Cc1c[nH]c2ccccc12)C(=O)N[C@@H](CCCCN)C(=O)O)[C@@H](C)CC)[C@@H](C)CC` [IKKIWSKIKKWWK], the MIC in [10] is 4.69 µM (≈ 8.31 µg/mL); in assay [11], at least 100 µM; in assay [12], 2.5 µM (≈ 4.43 µg/mL); in the assay with Bacillus cereus AS1.126 it was 6.25 µM (≈ 11.1 µg/mL); in assay [13], at least 100 µM; against Escherichia coli AS1.349, 2.5 µM (≈ 4.43 µg/mL). The MIC in assay [14] was 12.5 µM (≈ 22.2 µg/mL); in assay [15], 2.5 µM (≈ 4.43 µg/mL); in assay [16] it was at least 100 µM; in assay [17], 5 µM (≈ 8.86 µg/mL).
On to `CC[C@H](C)[C@H](NC(=O)[C@H](CCCCN)NC(=O)[C@@H](NC(=O)[C@@H](N)CC(N)=O)[C@@H](C)CC)C(=O)N[C@@H](CO)C(=O)NCC(=O)N[C@@H](CCCCN)C(=O)N[C@@H](Cc1c[nH]c2ccccc12)C(=O)N[C@@H](CCCCN)C(=O)N[C@@H](C)C(=O)N[C@@H](CCC(N)=O)C(=O)N[C@@H](CCCCN)C(=O)N[C@@H](CCCN=C(N)N)C(=O)N[C@@H](Cc1ccccc1)C(=O)N[C@@H](CC(C)C)C(=O)N[C@@H](CCCCN)C(=O)O` [NIKISGKWKAQKRFLK], for which the MIC in assay [18], in [19] and in assay [20] was at least 32 µM in each case.
For `CC[C@H](C)[C@H](NC(=O)[C@@H]1CCCN1C(=O)[C@H](CCCCN)NC(=O)[C@@H]1CCCN1C(=O)[C@H](CCCN=C(N)N)NC(=O)CNC(=O)[C@@H]1CCCN1C(=O)[C@H](Cc1ccccc1)NC(=O)[C@@H]1CCCN1C(=O)[C@H](CCCN=C(N)N)NC(=O)[C@@H]1CCCN1)C(=O)N[C@@H](Cc1ccccc1)C(=O)N[C@@H](CCCN=C(N)N)C(=O)N1CCC[C@H]1C(=O)N[C@@H](CCCN=C(N)N)C(=O)O` [PRPFPGRPKPIFRPR], the MIC in the assay on Escherichia coli HB101 was at least 100 µM; in assay [21], 12.5 µM (≈ 22.7 µg/mL); in assay [6], over 100 µM; in assay [22], at least 100 µM; in assay [9], over 100 µM.
For `CC[C@H](C)[C@H](NC(=O)[C@@H](N)C(C)C)C(=O)N[C@@H](Cc1cnc[nH]1)C(=O)N[C@@H](CCCCN)C(=O)N[C@@H](CC(C)C)C(=O)N[C@@H](C)C(=O)N[C@@H](CCCCN)C(=O)N[C@@H](CC(C)C)C(=O)N[C@@H](C)C(=O)N[C@@H](CCCCN)C(=O)N[C@@H](CCCCN)C(=O)N[C@@H](CC(C)C)C(=O)N[C@@H](C)C(=O)N[C@@H](CCCCN)C(=O)N[C@@H](CC(C)C)C(=O)N[C@@H](C)C(=O)N[C@@H](CCCCN)C(N)=O` [VIHKLAKLAKKLAKLAK], the MIC is 0.25 µM and 0.125 µM in the assay with Escherichia coli DL7; at least 32 µM in [23]; 0.25 µM (≈ 0.468 µg/mL) in assay [24].
For the compound `CC[C@H](C)[C@H](NC(=O)[C@@H](NC(=O)[C@H](CCCCN)NC(=O)[C@@H](NC(=O)[C@H](CCCCN)NC(=O)[C@H](C)NC(=O)[C@H](CCC(N)=O)NC(=O)[C@@H](NC(=O)[C@@H](N)Cc1c[nH]c2ccccc12)[C@@H](C)CC)[C@@H](C)O)C(C)C)C(=O)N[C@@H](C)C(=O)N[C@@H](Cc1ccc(O)cc1)C(=O)N[C@H](C(=O)N[C@@H](CCCN=C(N)N)C(=O)N[C@@H](Cc1ccc(O)cc1)C(=O)N[C@@H](CC(C)C)C(=O)O)C(C)C` [WIQAKTKVIAYVRYL], the MIC in assay [25] worked out at 2.44 µM (≈ 4.52 µg/mL); in [26], 19.5 µM (≈ 36.2 µg/mL).
Take `CC[C@H](C)[C@H](NC(=O)[C@@H](N)Cc1c[nH]c2ccccc12)C(=O)N[C@@H](CCC(N)=O)C(=O)N1CCC[C@H]1C(=O)N[C@@H](CCCCN)C(=O)N[C@H](C(=O)N[C@@H](CCCCN)C(=O)N[C@H](C(=O)N[C@H](C(=O)N1CCC[C@H]1C(=O)N[C@@H](C)C(=O)N[C@H](C(=O)N[C@@H](CCCN=C(N)N)C(=O)N[C@@H](C)C(=O)N[C@@H](CC(C)C)C(=O)O)C(C)C)[C@@H](C)CC)C(C)C)[C@@H](C)O` [WIQPKTKVIPAVRAL]: the figures for the MIC in assay [25] and in assay [26] were at least 156 µM and at least 312 µM, respectively.
